Seven compounds from patent publication US20080221193A1, “3-AMINO CHROMANE DERIVATIVES” (Wyeth, priority 2006, published 2008) can be followed below.

What is called Ki is a dissociation constant, usually derived from enzyme kinetics or from competition with a known ligand. One may read the IC50 as the concentration that gives 50% inhibition. Broadly, the EC50 is the midpoint of the concentration-response curve.

SMILES strings stand for the structures.

The target of test [1] is T1, human 5-HT1A receptors (Homo sapiens, UniProt P08908).
T1 construct: expressed in transfected cells; host or cells: CHO cells, stably transfected
T1 sequence (P08908 1-422): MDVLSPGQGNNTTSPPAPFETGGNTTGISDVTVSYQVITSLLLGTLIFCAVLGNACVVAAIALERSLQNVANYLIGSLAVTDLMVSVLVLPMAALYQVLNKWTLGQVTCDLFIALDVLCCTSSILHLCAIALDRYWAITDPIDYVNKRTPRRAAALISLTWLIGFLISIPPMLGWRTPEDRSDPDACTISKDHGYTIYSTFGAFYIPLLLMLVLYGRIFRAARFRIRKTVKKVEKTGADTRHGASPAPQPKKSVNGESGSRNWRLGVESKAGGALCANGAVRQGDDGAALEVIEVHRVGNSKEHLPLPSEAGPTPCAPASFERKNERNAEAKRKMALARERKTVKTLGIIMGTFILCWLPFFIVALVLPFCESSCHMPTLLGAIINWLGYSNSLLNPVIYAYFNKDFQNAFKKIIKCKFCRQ
Briefly: 8-OH-DPAT binding in CHO cells stably transfected with human 5HT1a receptor. The settings on record: displacement of [3H]8-OH-DPAT, CHO cells with human 5-HT1A; read-out: 5-HT1A Receptor Affinity Ki. As for the experimental part:
High affinity for the serotonin 5-HT1A receptor was established by testing the claimed compound's ability to displace [^3H] 8-OH-DPAT (dipropylaminotetralin) from the 5-HT1A serotonin receptor following a modification of the procedure of Hall et al., (J. Neurochem., 1985, 44: 1685) which utilizes CHO cells stably transfected with human 5-HT1A receptors.
Stabily transfected CHO cells were grown in DMEM containing 10% heat inactivated FBS and non-essential amino acids. Cells were scraped off the plate, transferred to centrifuge tubes, and washed twice by centrifugation (2000 rpm for 10 min., 4° C.) in buffer (50 mM Tris pH 7.5). The resulting pellets were aliquoted and placed at −80° C. On day of assay, the cells were thawed on ice, and resuspended in buffer. The binding assay was performed in a 96 well microtiter plate in a total volume of […].
Non-specific binding was determined in the presence of […] 5HT, final ligand concentration is 1.5 nM. Following a 30 minute incubation at room temperature, the reaction was terminated by the addition of ice cold buffer and rapid filtration through a GF/B filter presoaked for 30 minutes in 0.5% PEI. Compounds were initially tested in a single point assay to determine percent inhibition at […]. Subsequently, Ki values were determined for compounds defined to be active.

The target of test [2] is h5-HT Transporter (Homo sapiens, UniProt P31645). In words: h5-HT Transporter Function (Table 1). In kind it is biochemical.
Test [3] has as its target T2, h5HT1a receptor (Homo sapiens, UniProt P08908).
T2 construct: expressed in transfected cells; host or cells: CHO cells, stably transfected
T2 sequence (P08908 1-422): T1 sequence (P08908 1-422)
Briefly: cAMP RIA in CHO cells stably transfected with the h5HT1a receptor. The test is classed as cell-based. The settings on record: for EC50: agonist, forskolin-stimulated cAMP, read-out: 5-HT1A Function cAMP EC50; for IC50: antagonist, reversal of agonist 8-OH-DPAT, read-out: 5-HT1A Function cAMP IC50. From the text: (§1) The agonist or antagonist activity at 5-HT1A receptors was established by using two different assays. The ^35S-GTPγS binding assay similar to that used by Lazareno and Birdsall (Br. J. Pharmacol., 1993, 109: 1120) was used to determine the test compound's ability to affect the binding of ^35S-GTPγS to membranes containing cloned human 5-HT1A receptors. Agonists produce an increase in binding whereas antagonists produce no increase but rather reverse the effects of the standard agonist 8-OH-DPAT. The test compound's maximum stimulatory effect is represented as the Emax, while its potency is defined by the EC50. The test compound's maximum inhibitory effect is represented as the Imax, while its potency is defined by the IC50. The second assay measured cAMP accumulation upon binding of the ligand to the 5-HT1A receptor. Antagonists block the effect of the standard agonist 8-OH-DPAT resulting in an increase in cAMP accumulation while agonists have the reverse effect. The test compound's maximum stimulatory or inhibitory effect is represented as the Emax while its potency is defined by either IC50 for an antagonist or EC50 for an agonist. [^3H]-8-OH-DPAT was used to determine maximum agonist or antagonist response in both functional assays.
Stabily transfected CHO cells were grown in DMEM containing 10% heat inactivated FBS and non-essential amino acids. The cells were plated at a density of 10(6) cells per well in a 24 well plate and incubated for 2 days in a CO2 incubator. On the second day, the media was replaced with 0.5 ml treatment buffer (DMEM+25 mM HEPES, 5 mM theophylline, 10 uM pargyline) and incubated 10 minutes at 37° C.
Wells were treated with forskolin (1 μM final conc) followed immediately by test compound (0.1 and 1 uM for initial screen) and incubated for an additional 10 min at 37° C. The reaction was terminated by removal of the media and addition of 0.5 ml ice cold assay buffer (supplied in RIA kit). Plates were stored at −20° C. prior to assessment of cAMP formation by RIA.
Compounds shown to have no agonist activities were further analyzed for ability to reverse agonist activity. In separate experiments, 6 concentrations of antagonist were preincubated for 20 minutes prior to the addition of agonist and forskolin. Cells were harvested as described. The cAMP kit was supplied by Amersham and the RIA was performed as per kit instructions.

Test [4] addresses T1, human 5-HT1A receptors. Briefly: 35S-GTPγS binding assay, membranes containing cloned human 5-HT1A receptors. In kind it is biochemical. The settings on record: read-out: 5-HT1A Function GTPγS IC50.
Description: as §1

h5-HT Transporter, sequence (P31645 whole entry): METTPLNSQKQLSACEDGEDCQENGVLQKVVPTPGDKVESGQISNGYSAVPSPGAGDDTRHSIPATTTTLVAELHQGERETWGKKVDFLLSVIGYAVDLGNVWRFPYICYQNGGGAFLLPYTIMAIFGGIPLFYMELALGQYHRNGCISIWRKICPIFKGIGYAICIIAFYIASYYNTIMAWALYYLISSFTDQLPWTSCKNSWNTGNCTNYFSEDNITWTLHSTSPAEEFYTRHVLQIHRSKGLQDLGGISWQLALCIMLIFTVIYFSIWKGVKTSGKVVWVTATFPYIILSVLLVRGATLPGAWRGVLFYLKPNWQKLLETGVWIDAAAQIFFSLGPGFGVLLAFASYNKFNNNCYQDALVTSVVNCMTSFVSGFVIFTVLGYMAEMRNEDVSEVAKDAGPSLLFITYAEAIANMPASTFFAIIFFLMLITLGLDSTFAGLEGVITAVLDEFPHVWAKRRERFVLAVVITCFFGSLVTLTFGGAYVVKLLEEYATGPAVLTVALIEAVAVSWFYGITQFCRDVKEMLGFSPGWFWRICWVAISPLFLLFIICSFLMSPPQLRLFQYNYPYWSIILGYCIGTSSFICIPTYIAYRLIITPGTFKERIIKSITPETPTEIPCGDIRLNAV

With `CCCN(CCCc1c[nH]c2ccc(F)cc12)[C@H]1COc2c(OC)ccc(C(N)=O)c2C1` [Example 10, (3R)-3-{propyl[3-(5-fluoro-1H-indol-3-yl)propyl]amino}-8-methoxychromane-5-carboxamide], the Ki in test [1] was 0.0205 µM. Besides, the values for the IC50 in test [2] and in test [4] were 0.008 µM and 0.321 µM, respectively. In addition, the EC50 in test [3] came out at 0.186 µM.

With `CCCCN(CCCc1c[nH]c2ccc(F)cc12)[C@H]1COc2c(OC)ccc(C(N)=O)c2C1` [Example 11, (3R)-3-{butyl[3-(5-fluoro-1H-indol-3-yl)propyl]amino}-8-methoxychromane-5-carboxamide], the Ki in test [1] came out at 0.0987 µM. Besides, the IC50 in test [2] amounted to 0.279 µM; in test [3] it was 0.375 µM; in test [4], 3.03 µM.

For `CNC(=O)c1ccc(OC)c2c1C[C@@H](N(CCCc1c[nH]c3ccc(F)cc13)C1CCC1)CO2` [Example 16, (3R)-3-{cyclobutyl[3-(5-fluoro-1H-indol-3-yl)propyl]amino}-8-methoxychromane-5-methylcarboxamide], the Ki in test [1] was 0.57 µM. Further, the IC50 in test [2] amounted to 0.055 µM; in test [4], 0.738 µM. In addition, the EC50 in test [3] is 0.323 µM.

On to `Cc1ccc(C(N)=O)c2c1OC[C@H](N(CCCc1c[nH]c3ccc(F)cc13)C1CCC1)C2` [Example 20, (3R)-3-{cyclobutyl[3-(5-fluoro-1H-indol-3-yl)propyl]amino}-8-methylchromane-5-carboxamide], for which the Ki in test [1] was found to be 0.00426 µM. Also, the IC50 worked out at 0.0522 µM in test [2] and 0.311 µM in test [4]. In addition, the EC50 in test [3] was found to be 0.0518 µM.

Turning to `CCc1ccc(C(N)=O)c2c1OC[C@H](N(CCCc1c[nH]c3ccc(F)cc13)C1CCC1)C2` [Example 21, (3R)-3-{cyclobutyl[3-(5-fluoro-1H-indol-3-yl)propyl]amino}-8-ethylchromane-5-carboxamide], in test [1], the Ki was determined as 0.00593 µM. Moreover, the IC50 in test [2] was found to be 0.0904 µM; in test [4] it was 0.724 µM. Also, the EC50 in test [3] was determined as 0.0156 µM.

For `CSc1ccc(C(N)=O)c2c1OC[C@H](N(CCCc1c[nH]c3ccc(F)cc13)C1CCC1)C2` [Example 22, (3R)-3-{cyclobutyl[3-(5-fluoro-1H-indol-3-yl)propyl]amino}-8-(methylthio)chromane-5-carboxamide], the Ki in test [1] stood at 0.0169 µM. For the same compound, the IC50 in test [2] was 0.364 µM; in test [3] it was 0.0598 µM; in test [4] it was 1.18 µM.

For `CNc1ccc(C(N)=O)c2c1OC[C@H](N(CCCc1c[nH]c3ccc(F)cc13)C1CCC1)C2` [Example 25, (3R)-3-{cyclobutyl[3-(5-fluoro-1H-indol-3-yl)propyl]amino}-8-(methylamino)-chromane-5-carboxamide], in test [1], the Ki was 0.0515 µM. The IC50 in test [2] turned out to be 0.137 µM; in test [3] it was 0.14 µM; in test [4] it was 3.55 µM.
